Data on two molecules can be found in patent US20240325370A1, “THERAPEUTIC REGIMENS OF A DEGRADER OF BRD9” (FOGHORN THERAPEUTICS INC., priority 2021, published 2024).

Broadly, the DC50 is the midpoint of the concentration-degradation curve.

“Also recorded” adds a separate entry of the source. Like-named read-outs stand apart in the source and are kept apart here.

Test [1] concerns ASKA synovial sarcoma xenografts. The test is described as follows: ASKA synovial sarcoma xenograft efficacy. The format is in vivo. The following applies: for Tumor Growth (%) on Day 21 / Tumor Size (mm^3) on Day 21: Mean ± SEM; for T/C (%) / TGI (%): Day 21. The method, then: A study was conducted to examine anti-tumor efficacy of compound S-D1 with BIW IV dosing of the racemate, compound D1, for 3 weeks utilizing a second xenograft model of human synovial sarcoma, ASKA. Vehicle (0.5% HPMC, 0.1% Tween 80 in water, pH 1.3 to 1.5), administered orally, was used as the general comparator for all test article responses (i.e., tumor growth and body weight changes). Pazopanib and ifosfamide, two agents currently used in clinic to treat synovial sarcoma patients were compared to compound D1 treatment alone. Pazopanib was administered orally at 40 mg/kg QD and ifosfamide was given IV at 80 mg/kg QD for the first 3 days (Days 0, 1, and 2) in the 3-week treatment period, mimicking the equivalent treatment regimens for both drugs in human patients.

For test [2], the target named is T1, BRD9 (Homo sapiens, UniProt Q9H8M2).
T1 sequence (Q9H8M2 1-597): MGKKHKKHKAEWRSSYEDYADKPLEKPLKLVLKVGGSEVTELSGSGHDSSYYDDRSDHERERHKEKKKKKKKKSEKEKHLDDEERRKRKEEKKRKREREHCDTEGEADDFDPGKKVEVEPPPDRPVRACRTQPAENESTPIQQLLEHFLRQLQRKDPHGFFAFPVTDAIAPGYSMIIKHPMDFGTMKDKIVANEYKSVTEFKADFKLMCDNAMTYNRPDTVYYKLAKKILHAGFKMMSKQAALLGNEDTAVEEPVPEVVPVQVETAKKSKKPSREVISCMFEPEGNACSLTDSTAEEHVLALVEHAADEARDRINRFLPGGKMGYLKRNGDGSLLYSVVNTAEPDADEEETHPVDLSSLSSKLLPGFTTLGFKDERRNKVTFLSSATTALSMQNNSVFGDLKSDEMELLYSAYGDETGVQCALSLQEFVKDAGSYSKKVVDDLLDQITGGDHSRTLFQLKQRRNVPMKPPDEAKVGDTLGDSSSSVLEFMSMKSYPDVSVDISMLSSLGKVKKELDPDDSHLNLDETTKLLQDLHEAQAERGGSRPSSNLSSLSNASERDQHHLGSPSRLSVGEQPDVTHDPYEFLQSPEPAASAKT
Put plainly: Tumor BRD9 modulation after each regimen, SYO-1 xenograft (western blot). The format is in vivo, mice. Also on record: from tissue; host or cells: SYO-1 xenograft tumours in BALB/c nude or NOD SCID mice. An excerpt: The racemate, compound D1, which consists of ˜50% compound S-D1, was utilized in an SYO-1 (a synovial sarcoma xenograft) model to explore if similar efficacy is achievable with an intermittent dosing schedule. Due to technical feasibility and animal-welfare considerations, intraperitoneal (IP) administration was chosen over the IV route. […] Groups of female SYO-1 tumor-bearing NOD SCID mice (n=8/group) were intraperitoneally administered with vehicle or compound D1 for 21 days. Compound D1 was formulated as a suspension in 10% DMSO/40% PEG400/50% deionized water, volume/volume (v/v). […] To determine the level of modulation of BRD9 after each regimen, mice (n=4 mice/time-point) were euthanized and tumor samples were collected at different timepoints post-last dose (Day 21). […] BRD9 levels were assessed at 24, 72 and 168 hours (expected time points of trough plasma concentrations) for QD, BIW, and QW regimens respectively, as indicated in Table 8. Samples were analyzed using Western blot method.
On the technique in general: Immunoblotting shows a protein as a band on a membrane.

For test [3], the target named is T1, BRD9. Put plainly: BRD9 degradation by western blot in synovial sarcoma cells (SYO-1, ASKA). It is filed as cell-based. The conditions noted are these: for DC50: read-out: Fitted DC50. The method, then: Method. Synovial sarcoma cells were plated in 6-well plate at […] cells/well and treated with serial concentrations of BRD9 degrader (10 nM top concentration, diluted 1:3) the next day for two time points at 37° C. Cells were then harvested, washed with cold PBS, and frozen in cell pellets at −80° C. Lysates were prepared by resuspending thawed pellets in 1×RIPA Lysis and Extraction buffer (Thermo Fisher, Cat #89900) with 1× Halt™ Protease and Phosphatase Inhibitor Cocktail, EDTA-free (Thermo Fisher, Cat #78441) and 1:1000 dilution Pierce™ Universal Nuclease for Cell Lysis 25ku (Thermo Fisher, Cat #88700). Lysates were incubated on ice for 10 minutes and then centrifuged in 4° C. at maximum speed (15,000 rpm) for 10 minutes. Samples were then analyzed for total protein using BCA protein quantification assay and diluted to 1 ug/μL with lysis buffer and 1× NuPAGE™ LDS Sample Buffer (4×) (Thermo Fisher, Cat #NP0007) and 1×DTT from 30× stock (Cell Signaling Technologies, Cat #14265S). Samples with 20-25 ug of total protein were loaded into 4-12% Bis-Tris Mini-Gel with 1×MES Running buffer and run at 150V for 45 minutes. Gels were transferred using Trans-Blot® Turbo™ Transfer System (semi-dry) at 25V for 10 minutes (High MW setting) on nitrocellulose blots. Blots were blocked in 5% milk in TBST for 1 hour and probed with BRD9 antibody (Bethyl Labs, Cat #A303-781A, 1:750 for SYO1, and Cell Signaling Technologies, Cat #71232S for ASKA) and beta-Actin antibody (Cell Signaling Technologies, Cat #3700, 1:2000) overnight at 4° C. The next day, blots were washed in TBST 3× and probed with 1:5000 IRDye® 680LT Goat anti-Rabbit IgG Secondary Antibody (LICOR, Cat #926-68021) and 1:10000 IRDye® 800CW Goat anti-Mouse IgG Secondary Antibody (LiCOR, Cat #926-32210) in LiCOR Odyssey® Blocking Buffer (TBS) for 1 hour at room temperature. Blots were washed in TBST 3× and scanned at […] wavelength using LiCOR Odyssey® CLx Imaging System. Western blot signal was quantified using same analyses program included in the same machine. BRD9 signal was quantified by normalizing to beta-actin signal and all samples were normalized to DMSO, set as 100% signal.

For test [4], the target named is T1, BRD9. The test is described as follows: Drug washout and competition experiments in SYO-1 cells. The conditions noted are these: two washouts, five washes per washout step.
Method: Drug Washout and Competition Experiments in SYO-1 Cells.
SYO-1 cells grown in flasks to log phase growth were washed with PBS and dissociated by adding TrypLE™ Express. The collected cells were resuspended in DMEM (high glucose, with GlutaMAX™ supplement) with 10% FBS.
Cells were collected using fresh media and measured for cell number. 1×10^6 cells were harvested for the 24-hour treatment sample and frozen down at −80° C. The remainder of the treated cells were washed five times with 10 ml fresh media, through sequential rounds of resuspension and centrifugation at 1,000 rpm for 5 minutes.
Another 1×10^6 cells were harvested for the 24-hour post-washout sample and frozen down at −80° C. The remainder of the cells were split off evenly into two separate 100 mm petri dishes and resuspended in 10 ml culture medium in each plate.
The remaining cells of each treatment group were washed five times with 10 mL fresh media. Cells were then seeded evenly into 6-well plates in 2 ml fresh media per well. 2 wells were allocated per collection time point.
[5] abbreviates: 0.1 mg/kg BIW IV 3 weeks, ASKA xenograft.
Setting [6] is: 0.5 mg/kg BIW IV 3 weeks, ASKA xenograft.
Where [7] appears, read: 2 mg/kg BIW IV 3 weeks, ASKA xenograft.
Where [8] appears, read: 0.5 or 2 mg/kg BIW IV, ASKA xenograft.

On to `COc1cc(-c2cn(C)c(=O)c3cnc(N4CCC4)cc23)cc(OC)c1CN1CCC(CN2CCC3(CC2)CN(c2ccc4c(c2)C(=O)N(C2CCC(=O)NC2=O)C4)C3)CC1` (racemic) [Compound D1, 3-[6-(7-[[1-([4-[6-(azetidin-1-yl)-2-methyl-1-oxo-2,7-naphthyridin-4-yl]-2,6-dimethoxyphenyl]methyl)piperidin-4-yl]methyl]-2,7-diazaspiro[3.5]nonan-2-yl)-1-oxo-3H-isoindol-2-yl]piperidine-2,6-dione], for which the “Tumor Growth (%) on Day 21” value in test [1] (setting [5]) is recorded as 440 ± 46%; in test [1] (setting [6]) it was 121 ± 13%; in test [1] (setting [7]), 92 ± 6%. The results for the “Tumor Size (mm^3) on Day 21” value in test [1] (setting [5]), in test [1] (setting [6]) and in test [1] (setting [7]) were 634 ± 82 mm^3, 175 ± 26 mm^3 and 130 ± 10 mm^3, respectively. Also, the results for the “T/C (%)” value in test [1] (0.1 mg/kg BIW IV 3 weeks), in test [1] (0.5 mg/kg BIW IV 3 weeks) and in test [1] (2 mg/kg BIW IV 3 weeks) were 36.1%, 9.9% and 7.6%, respectively. Further, the “TGI (%)” value was 63.9% in test [1] (0.1 mg/kg BIW IV 3 weeks), 90.1% in test [1] (0.5 mg/kg BIW IV 3 weeks) and 92.4% in test [1] (2 mg/kg BIW IV 3 weeks). Further, the tumor response result in test [1] (setting [8]) was “Tumor stasis”. The “tumor stasis continued after the cessation of dosing” value in test [1] (setting [8]) is recorded as “approximately 15 days”. Also, the “BRD9 PD effect in tumor at Cmin” value in test [2] (0.35 mg/kg BIW or 0.7 mg/kg QW treatment) is given as “intermediate PD effect”. Besides, the “BRD9 depletion in tumor at Cmin” value in test [2] (3.5 mg/kg QW and 0.5 mg/kg QD treated groups) is “Nearly complete BRD9 depletion”.
As to `COc1cc(-c2cn(C)c(=O)c3cnc(N4CCC4)cc23)cc(OC)c1CN1CCC(CN2CCC3(CC2)CN(c2ccc4c(c2)C(=O)N([C@H]2CCC(=O)NC2=O)C4)C3)CC1` (single isomer, unassigned) [Compound S-D1], the DC50 was found to be 0.34 nM in test [3] (ASKA, 0.5 h); 0.012 nM in test [3] (ASKA, 2 h); 0.092 nM in test [3] (SYO-1, 1 h); 0.023 nM in test [3] (SYO-1, 6 h). Besides, the “BRD9 degradation compared with racemic parent compound D1” value in test [3] (SYO-1, 1 or 6 hours (FIGS. 16 and 17)) was “slightly better”. In addition, the “potency in degradation of endogenous BRD9 protein” value in test [3] (two synovial sarcoma cell lines, early time point) is recorded as “much more potent”. Also, in test [4], the “BRD9 degradation after second washout (removal of binding competitors)” value is reported as “retention of the BRD9-suppressive activity; also recorded: degraded again”.
